Target: recombinant human UAE (Homo sapiens (Human), UniProt P22314)
Test: Ubiquitin Activating Enzyme (UAE) HTRF Assay
Conditions: read-out: % inhibition @0.111 μM
Procedure: After incubation for 120 minutes, quantification of the FRET is performed on the Pherostar (BMG).
For compounds whose values are marked with an asterisk (*), mouse UAE was used. For all other compounds, human UAE was used.

Sequence of recombinant human UAE (P22314 whole entry): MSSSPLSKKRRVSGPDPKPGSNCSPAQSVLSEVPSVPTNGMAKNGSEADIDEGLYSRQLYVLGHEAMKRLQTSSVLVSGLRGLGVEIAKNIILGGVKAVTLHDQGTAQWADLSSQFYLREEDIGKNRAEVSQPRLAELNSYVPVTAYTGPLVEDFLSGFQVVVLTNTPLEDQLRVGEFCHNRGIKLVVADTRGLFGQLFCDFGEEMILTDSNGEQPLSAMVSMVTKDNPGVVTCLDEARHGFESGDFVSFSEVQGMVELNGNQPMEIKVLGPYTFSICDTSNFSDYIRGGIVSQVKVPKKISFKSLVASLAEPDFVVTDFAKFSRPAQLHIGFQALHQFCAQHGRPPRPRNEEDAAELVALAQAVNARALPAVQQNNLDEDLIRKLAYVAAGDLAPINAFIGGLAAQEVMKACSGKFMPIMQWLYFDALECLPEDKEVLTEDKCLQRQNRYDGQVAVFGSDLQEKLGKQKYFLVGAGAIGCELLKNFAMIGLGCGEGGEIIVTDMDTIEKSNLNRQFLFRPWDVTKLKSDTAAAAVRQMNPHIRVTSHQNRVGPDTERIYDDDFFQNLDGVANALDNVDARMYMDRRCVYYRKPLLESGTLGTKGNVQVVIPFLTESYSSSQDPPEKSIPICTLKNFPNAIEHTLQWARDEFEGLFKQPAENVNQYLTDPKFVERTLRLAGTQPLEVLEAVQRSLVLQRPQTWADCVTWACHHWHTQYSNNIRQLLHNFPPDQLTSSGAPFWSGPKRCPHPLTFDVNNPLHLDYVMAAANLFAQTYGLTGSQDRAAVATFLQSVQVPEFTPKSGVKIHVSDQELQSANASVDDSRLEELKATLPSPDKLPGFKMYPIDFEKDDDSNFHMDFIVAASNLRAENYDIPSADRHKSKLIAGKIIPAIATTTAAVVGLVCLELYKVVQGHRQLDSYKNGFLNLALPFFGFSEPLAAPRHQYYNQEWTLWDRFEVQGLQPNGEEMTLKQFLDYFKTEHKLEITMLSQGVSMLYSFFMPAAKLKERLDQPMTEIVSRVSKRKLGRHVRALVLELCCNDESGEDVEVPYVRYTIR

Row | SMILES | inhibition at 0.111 µM
1 | NS(=O)(=O)OC[C@H]1C[C@@H](Nc2ccnc3cc(-c4cccc(OC(F)(F)F)c4)nn23)[C@H](O)[C@@H]1O (relative stereo) [Compound I-040, (rac)-((1R,2R,3S,4R)-2,3-Dihydroxy-4-((2-(3-(trifluoromethoxy)phenyl)pyrazolo[1,5-a]pyrimidin-7-yl)amino)cyclopentyl)methyl rel-sulfamate] | 100%
2 | COC(C)(C)c1cccc(-c2cc3nccc(N[C@@H]4C[C@H](COS(N)(=O)=O)[C@@H](O)[C@H]4O)n3n2)c1 (relative stereo) [Compound I-082, (rac)-((1R,2R,3S,4R)-2,3-dihydroxy-4-(2-(3-(2-methoxypropan-2-yl)phenyl)pyrazolo[1,5-a]pyrimidin-7-ylamino)cyclopentyl)methyl rel-sulfamate] | 100%
3 | NS(=O)(=O)OC[C@H]1C[C@@H](Nc2ccnc3cc(-c4c(OC(F)F)ccc5ccccc45)nn23)[C@H](O)[C@@H]1O [Compound I-110, (s.e.)-((1R,2R,3S,4R)-4-(2-(2-(difluoromethoxy)naphthalen-1-yl)pyrazolo[1,5-a]pyrimidin-7-ylamino)-2,3-dihydroxycyclopentyl)methyl sulfamate] | 100%
4 | NS(=O)(=O)OC[C@H]1C[C@@H](Nc2ccnc3cc(-c4cccc(OC(F)F)c4)nn23)[C@H](O)[C@@H]1O (relative stereo) [Compound I-050, (rac)-((1R,2R,3S,4R)-4-((2-(3-(Difluoromethoxy)phenyl)pyrazolo[1,5-a]pyrimidin-7-yl)amino)-2,3-dihydroxycyclopentyl)methyl rel-sulfamate] | 100%
5 | NS(=O)(=O)OC[C@H]1C[C@@H](Nc2ccnc3cc(-c4ccc5[nH]ccc5c4)nn23)[C@H](O)[C@@H]1O (relative stereo) [Compound I-074, (rac)-[(1R,2R,3S,4R)-2,3-dihydroxy-4-{[2-(1H-indol-5-yl)pyrazolo[1,5-a]pyrimidin-7-yl]amino}cyclopentyl]methyl rel-sulfamate] | 98%
6 | NS(=O)(=O)OC[C@H]1C[C@@H](Nc2ccnc3cc(-c4cccc5c4oc4ccccc45)nn23)[C@H](O)[C@@H]1O (relative stereo) [Compound I-010, (rac)-((1R,2R,3S,4R)-4-(2-(dibenzo[b,d]furan-4-yl)pyrazolo[1,5-a]pyrimidin-7-ylamino)-2,3-dihydroxycyclopentyl)methyl rel-sulfamate] | 100%
7 | NS(=O)(=O)OC[C@H]1C[C@@H](Nc2ccnc3cc(-c4cccc(C(=O)c5ccccc5)c4)nn23)[C@H](O)[C@@H]1O (relative stereo) [Compound I-073, (rac)-((1R,2R,3S,4R)-4-(2-(3-benzoylphenyl)pyrazolo[1,5-a]pyrimidin-7-ylamino)-2,3-dihydroxycyclopentyl)methyl rel-sulfamate] | 91%
8 | COc1ccc(Cl)cc1-c1cc2nccc(N[C@@H]3C[C@H](COS(N)(=O)=O)[C@@H](O)[C@H]3O)n2n1 (relative stereo) [Compound I-020, (rac)-((1R,2R,3S,4R)-4-(2-(5-chloro-2-methoxyphenyl)pyrazolo[1,5-a]pyrimidin-7-ylamino)-2,3-dihydroxycyclopentyl)methyl rel-sulfamate] | 100%
9 | NS(=O)(=O)OC[C@H]1C[C@@H](Nc2ccnc3cc(-c4c(Cl)cc(Cl)c5ccccc45)nn23)[C@H](O)[C@@H]1O [Compound I-117, (s.e.)-((1R,2R,3S,4R)-4-(2-(2,4-dichloronaphthalen-1-yl)pyrazolo[1,5-a]pyrimidin-7-ylamino)-2,3-dihydroxycyclopentyl)methyl sulfamate] | 92%
10 | NS(=O)(=O)OC[C@H]1C[C@@H](Nc2ccnc3cc(-c4cccc(N5CCCC5=O)c4)nn23)[C@H](O)[C@@H]1O (relative stereo) [Compound I-087, (rac)-((1R,2R,3S,4R)-2,3-dihydroxy-4-(2-(3-(2-oxopyrrolidin-1-yl)phenyl)pyrazolo[1,5-a]pyrimidin-7-ylamino)cyclopentyl)methyl rel-sulfamate] | 100%
11 | NS(=O)(=O)OC[C@H]1C[C@@H](Nc2ccnc3cc(-c4csc5ccccc45)nn23)[C@H](O)[C@@H]1O (relative stereo) [Compound I-022, (rac)-((1R,2R,3S,4R)-4-(2-(benzo[b]thiophen-3-yl)pyrazolo[1,5-a]pyrimidin-7-ylamino)-2,3-dihydroxycyclopentyl)methyl rel-sulfamate] | 100%
12 | Cn1cc(-c2cccc(-c3cc4nccc(N[C@@H]5C[C@H](COS(N)(=O)=O)[C@@H](O)[C@H]5O)n4n3)c2)cn1 (relative stereo) [Compound I-122, (rac)-[(1R,2R,3S,4R)-2,3-dihydroxy-4-({2-[3-(1-methyl-1H-pyrazol-4-yl)phenyl]pyrazolo[1,5-a]pyrimidin-7-yl}amino)cyclopentyl]methyl rel-sulfamate] | 97%
13 | NS(=O)(=O)OC[C@H]1C[C@@H](Nc2ccnc3cc(-c4cccc(C5CCCC5)c4)nn23)[C@H](O)[C@@H]1O (relative stereo) [Compound I-048, (rac)-[(1R,2R,3S,4R)-4-{[2-(3-cyclopentylphenyl)pyrazolo[1,5-a]pyrimidin-7-yl]amino}-2,3-dihydroxycyclopentyl]methyl rel-sulfamate] | 100%
14 | NS(=O)(=O)OC[C@H]1C[C@@H](Nc2ccnc3cc(-c4cc5ccccc5o4)nn23)[C@H](O)[C@@H]1O (relative stereo) [Compound I-086, (rac)-((1R,2R,3S,4R)-4-(2-(benzofuran-2-yl)pyrazolo[1,5-a]pyrimidin-7-ylamino)-2,3-dihydroxycyclopentyl)methyl rel-sulfamate] | 99%
15 | NS(=O)(=O)OC[C@H]1C[C@@H](Nc2ccnc3cc(-c4coc5ccc(Cl)cc45)nn23)[C@H](O)[C@@H]1O (relative stereo) [Compound I-092, (rac)-((1R,2R,3S,4R)-4-(2-(5-chlorobenzofuran-3-yl)pyrazolo[1,5-a]pyrimidin-7-ylamino)-2,3-dihydroxycyclopentyl)methyl rel-sulfamate] | 100%
16 | C[Si](C)(C)c1cccc(-c2cc3nccc(N[C@@H]4C[C@H](COS(N)(=O)=O)[C@@H](O)[C@H]4O)n3n2)c1 (relative stereo) [Compound I-035, (rac)-((1R,2R,3S,4R)-2,3-dihydroxy-4-(2-(3-(trimethylsilyl)phenyl)pyrazolo[1,5-a]pyrimidin-7-ylamino)cyclopentyl)methyl rel-sulfamate] | 100%
17 | CC1(C)COc2ccc(-c3cc4nccc(N[C@@H]5C[C@H](COS(N)(=O)=O)[C@@H](O)[C@H]5O)n4n3)cc21 (relative stereo) [Compound I-026, (rac)-((1R,2R,3S,4R)-4-(2-(3,3-dimethyl-2,3-dihydrobenzofuran-5-yl)pyrazolo[1,5-a]pyrimidin-7-ylamino)-2,3-dihydroxycyclopentyl)methyl rel-sulfamate] | 100%
18 | Cc1cnc2cc(-c3ccccc3)nn2c1N[C@@H]1C[C@H](COS(N)(=O)=O)[C@@H](O)[C@H]1O (relative stereo) [Compound I-089, (rac)-{(1R,2R,3S,4R)-2,3-dihydroxy-4-[(6-methyl-2-phenylpyrazolo[1,5-a]pyrimidin-7-yl)amino]cyclopentyl}methyl rel-sulfamate] | 27%
19 | CN(C)c1ccc(-c2cc3nccc(N[C@@H]4C[C@H](COS(N)(=O)=O)[C@@H](O)[C@H]4O)n3n2)c2ccccc12 [Compound I-107, (s.e.)-((1R,2R,3S,4R)-4-(2-(4-(dimethylamino)naphthalen-1-yl)pyrazolo[1,5-a]pyrimidin-7-ylamino)-2,3-dihydroxycyclopentyl)methyl sulfamate] | 100%
20 | NS(=O)(=O)OC[C@H]1C[C@@H](Nc2ccnc3cc(-c4cc(F)c5ccccc5c4)nn23)[C@H](O)[C@@H]1O [Compound I-118, (s.e.)-((1R,2R,3S,4R)-4-(2-(4-fluoronaphthalen-2-yl)pyrazolo[1,5-a]pyrimidin-7-ylamino)-2,3-dihydroxycyclopentyl)methyl sulfamate] | 100%
21 | NS(=O)(=O)OC[C@H]1C[C@@H](Nc2ccnc3cc(-c4ccc5oc6ccccc6c5c4)nn23)[C@H](O)[C@@H]1O (relative stereo) [Compound I-019, (rac)-((1R,2R,3S,4R)-4-(2-(dibenzo[b,d]furan-2-yl)pyrazolo[1,5-a]pyrimidin-7-ylamino)-2,3-dihydroxycyclopentyl)methyl rel-sulfamate] | 100%
22 | NS(=O)(=O)OC[C@H]1C[C@@H](Nc2ccnc3cc(-c4csc5ccc(F)cc45)nn23)[C@H](O)[C@@H]1O (relative stereo) [Compound I-081, (rac)-((1R,2R,3S,4R)-4-(2-(5-fluorobenzo[b]thiophen-3-yl)pyrazolo[1,5-a]pyrimidin-7-ylamino)-2,3-dihydroxycyclopentyl)methyl rel-sulfamate] | 100%
23 | NS(=O)(=O)OC[C@H]1C[C@@H](Nc2ccnc3cc(-c4cccc(Oc5ccccc5)c4)nn23)[C@H](O)[C@@H]1O (relative stereo) [Compound I-051, (rac)-((1R,2R,3S,4R)-2,3-Dihydroxy-4-((2-(3-phenoxyphenyl)pyrazolo[1,5-a]pyrimidin-7-yl)amino)cyclopentyl)methyl rel-sulfamate] | 90%
24 | NS(=O)(=O)OC[C@H]1C[C@@H](Nc2ccnc3cc(-c4nc(-c5ccccc5)cs4)nn23)[C@H](O)[C@@H]1O (relative stereo) [Compound I-031, (rac)-[(1R,2R,3S,4R)-2,3-dihydroxy-4-{[2-(4-phenyl-1,3-thiazol-2-yl)pyrazolo[1,5-a]pyrimidin-7-yl]amino}cyclopentyl]methyl rel-sulfamate] | 100%
25 | NS(=O)(=O)OC[C@H]1C[C@@H](Nc2ccnc3cc(-c4ccccc4Oc4ccccc4)nn23)[C@H](O)[C@@H]1O (relative stereo) [Compound I-068, (rac)-((1R,2R,3S,4R)-2,3-dihydroxy-4-(2-(2-phenoxyphenyl)pyrazolo[1,5-a]pyrimidin-7-ylamino)cyclopentyl)methyl rel-sulfamate] | 95%
